Reference: ChEMBL document CHEMBL3739423, “Synthesis, biological evaluation and mechanism study of a class of benzylideneindanone derivatives as novel anticancer agents” (Medchemcomm, 2015)
Blank lines part the entries; values can stand above or below the compound they belong to. Calls of active or inactive are those of the source. No cut-off for these calls is given here.

How the values were obtained:
[1] = Antiproliferative activity against human PC3 cells after 48 hrs by MTT assay; format: functional; details: PC-3, 48 h
HeLa [2] = experiment: Antiproliferative activity against human HeLa cells after 48 hrs by MTT assay; format: functional
[3] = Antiproliferative activity against human Bel7402 cells after 48 hrs by MTT assay; format: functional; details: Bel-7402, 48 h
A549 = experiment: Antiproliferative activity against human A549 cells after 48 hrs by MTT assay; format: functional; details: A549, 48 h
MDA-MB-231 = experiment: Antiproliferative activity against human MDA-MB-231 cells after 48 hrs by MTT assay; format: functional; details: MDA-MB-231, 48 h
HeLa [4] = experiment: Induction of microtubule disruption in human HeLa cells assessed as irregular cytoplasm and chromosomes at 0.5 microM after 48 hrs by hoechst-33342-staining based confocal microscopy analysis; format: cell-based
HeLa [5] = experiment: Cell cycle arrest in human HeLa cells assessed as accumulation at G2/M phase at 0.05 microM after 48 hrs by flow cytometry; format: functional
HeLa [6] = experiment: Cell cycle arrest in human HeLa cells assessed as accumulation at G2/M phase at 0.1 microM after 48 hrs by flow cytometry; format: functional
HeLa [7] = experiment: Induction of apoptosis in human HeLa cells assessed as viable cells at 0.05 uM after 48 hrs by annexin-v-PI staining based flow cytometry (reference value: 98.4%); format: functional; details: read-out: Activity
HeLa [8] = experiment: Induction of apoptosis in human HeLa cells assessed as late apoptotic cells at 0.05 uM after 48 hrs by annexin-v-PI staining based flow cytometry (reference value: 0.08%); format: functional
HeLa [9] = experiment: Induction of apoptosis in human HeLa cells assessed as early apoptotic cells at 0.5 uM after 48 hrs by annexin-v-PI staining based flow cytometry (reference value: 1.44%); format: functional
Tubulin = experiment: Inhibition of tubulin polymerization (unknown origin) by fluorescence analysis; format: protein-complex assay, Homo sapiens
HeLa [10] = experiment: Induction of apoptosis in human HeLa cells assessed as early apoptotic cells at 0.1 uM after 48 hrs by annexin-v-PI staining based flow cytometry (reference value: 1.44%); format: functional
HeLa [11] = experiment: Induction of apoptosis in human HeLa cells assessed as viable cells at 0.5 uM after 48 hrs by annexin-v-PI staining based flow cytometry (reference value: 98.4%); format: functional; details: read-out: Activity
HeLa [12] = experiment: Cell cycle arrest in human HeLa cells assessed as accumulation at G2/M phase at 0.5 microM after 48 hrs by flow cytometry; format: functional
HeLa [13] = experiment: Induction of apoptosis in human HeLa cells assessed as late necrotic cells at 0.05 uM after 48 hrs by annexin-v-PI staining based flow cytometry (reference value: 0.09%); format: functional
HeLa [14] = experiment: Cell cycle arrest in human HeLa cells assessed as accumulation at G2/M phase after 48 hrs by flow cytometry; format: functional, cell-based
HeLa [15] = experiment: Induction of apoptosis in human HeLa cells assessed as viable cells at 0.1 uM after 48 hrs by annexin-v-PI staining based flow cytometry (reference value: 98.4%); format: functional; details: read-out: Activity
HeLa [16] = experiment: Induction of apoptosis in human HeLa cells assessed as early apoptotic cells at 0.05 uM after 48 hrs by annexin-v-PI staining based flow cytometry (reference value: 1.44%); format: functional
HeLa [17] = experiment: Induction of apoptosis in human HeLa cells assessed as late apoptotic cells at 0.1 uM after 48 hrs by annexin-v-PI staining based flow cytometry (reference value: 0.08%); format: functional
HeLa [18] = experiment: Induction of apoptosis in human HeLa cells assessed as late necrotic cells at 0.5 uM after 48 hrs by annexin-v-PI staining based flow cytometry (reference value: 0.09%); format: functional
HeLa [19] = experiment: Induction of microtubule disruption in human HeLa cells assessed as destabilized microtubule network at 0.05,0.1, 0.5 microM after 48 hrs by hoechst-33342-staining based confocal microscopy analysis; format: cell-based
HeLa [20] = experiment: Induction of microtubule disruption in human HeLa cells assessed as microtubule heavily shrunk around centre of cells at 0.5 microM after 48 hrs by hoechst-33342-staining based confocal microscopy analysis; format: cell-based
HeLa [21] = experiment: Induction of apoptosis in human HeLa cells assessed as late apoptotic cells at 0.5 uM after 48 hrs by annexin-v-PI staining based flow cytometry (reference value: 0.08%); format: functional
HeLa [22] = experiment: Induction of apoptosis in human HeLa cells after 48 hrs by annexin-v-PI staining based flow cytometry; format: functional, cell-based
HeLa [23] = experiment: Induction of apoptosis in human HeLa cells assessed as late necrotic cells at 0.1 uM after 48 hrs by annexin-v-PI staining based flow cytometry (reference value: 0.09%); format: functional

SMILES: COc1cc2c(cc1OC)C(=O)/C(=C/c1cc(OC)c(OC)c(OC)c1)C2
- GI50 [1]: > 10 µM
- GI50 (HeLa [2]): > 10 µM
- GI50 [3]: > 10 µM
- GI50 (A549): > 10 µM
- GI50 (MDA-MB-231): > 10 µM

SMILES: COc1ccc(/C=C\c2cc(OC)c(OC)c(OC)c2)cc1O [COMBRETASTATIN A4]
- GI50 [1]: 0.014 µM
- GI50 (HeLa [2]): 0.0028 µM
- GI50 [3]: 0.012 µM
- GI50 (A549): 0.018 µM
- GI50 (MDA-MB-231): 0.021 µM

SMILES: COc1ccc(/C=C2\Cc3c(cc(OC)c(OC)c3OC)C2=O)cc1O
- Activity (HeLa [4]): Active
- Activity (HeLa [5]): 23.2%
- Activity (HeLa [6]): 35.2%
- viability at 0.05 µM (HeLa [7]): 91.8%
- Activity (HeLa [8]): 0.82%
- Activity (HeLa [9]): 42.4%
- IC50 (Tubulin): 7.56 µM
- GI50 [1]: 0.213 µM
- Activity (HeLa [10]): 19%
- GI50 (HeLa [2]): 0.172 µM
- viability at 0.5 µM (HeLa [11]): 40.6%
- GI50 [3]: 0.307 µM
- Activity (HeLa [12]): 46.1%
- Activity (HeLa [13]): 0.38%
- Activity (HeLa [14]): Dose-dependent effect
- viability at 0.1 µM (HeLa [15]): 77.4%
- GI50 (A549): 0.249 µM
- Activity (HeLa [16]): 6.98%
- Activity (HeLa [17]): 2.57%
- Activity (HeLa [18]): 4.4%
- Activity (HeLa [19]): Active
- GI50 (MDA-MB-231): 0.57 µM
- Activity (HeLa [20]): Active
- Activity (HeLa [21]): 12.6%
- Activity (HeLa [22]): Dose-dependent effect
- Activity (HeLa [23]): 1.03%

SMILES: COc1ccc(/C=C2\Cc3cc(OC)c(OC)c(OC)c3C2=O)cc1O
- GI50 [1]: > 10 µM
- GI50 (HeLa [2]): > 10 µM
- GI50 [3]: > 10 µM
- GI50 (A549): > 10 µM
- GI50 (MDA-MB-231): > 10 µM

SMILES: COc1cc2c(c(OC)c1OC)C/C(=C\c1cc(OC)c(OC)c(OC)c1OC)C2=O
- GI50 [1]: > 10 µM
- GI50 (HeLa [2]): > 10 µM
- GI50 [3]: > 10 µM
- GI50 (A549): > 10 µM
- GI50 (MDA-MB-231): > 10 µM

SMILES: COc1ccc(/C=C2\Cc3c(cc(OC)c(OC)c3OC)C2=O)cc1F
- IC50 (Tubulin): 8.92 µM
- GI50 [1]: 0.277 µM
- GI50 (HeLa [2]): 0.258 µM
- GI50 [3]: 0.491 µM
- GI50 (A549): 0.298 µM
- GI50 (MDA-MB-231): 0.521 µM

SMILES: COc1ccc(/C=C2\CCc3c(cc(OC)c(OC)c3OC)C2=O)cc1
- GI50 [1]: 19.6 µM
- GI50 (HeLa [2]): 12.4 µM
- GI50 [3]: 25.4 µM
- GI50 (A549): 18.9 µM
- GI50 (MDA-MB-231): 38.7 µM

SMILES: COc1ccc(/C=C2\Cc3c(cc(OC)c(OC)c3OC)C2=O)cc1
- IC50 (Tubulin): 9.62 µM
- GI50 [1]: 0.75 µM
- GI50 (HeLa [2]): 0.485 µM
- GI50 [3]: 0.56 µM
- GI50 (A549): 0.273 µM
- GI50 (MDA-MB-231): 0.429 µM

SMILES: COc1cc2c(cc1O)C(=O)/C(=C/c1ccc(OC)c(OC)c1OC)C2
- GI50 [1]: 3.14 µM
- GI50 (HeLa [2]): 1.59 µM
- GI50 [3]: 9.65 µM
- GI50 (A549): 3.42 µM
- GI50 (MDA-MB-231): 2.41 µM

SMILES: COc1ccc(/C=C2\Cc3cc(OC)c(OC)c(OC)c3C2=O)cc1N
- GI50 [1]: > 10 µM
- GI50 (HeLa [2]): > 10 µM
- GI50 [3]: > 10 µM
- GI50 (A549): > 10 µM
- GI50 (MDA-MB-231): > 10 µM

SMILES: COc1ccc(/C=C2\Cc3cc(OC)c(OC)c(OC)c3C2=O)cc1[N+](=O)[O-]
- GI50 [1]: > 10 µM
- GI50 (HeLa [2]): > 10 µM
- GI50 [3]: > 10 µM
- GI50 (A549): > 10 µM
- GI50 (MDA-MB-231): > 10 µM

SMILES: COc1cc2c(cc1O)C(=O)/C(=C/c1cc(OC)c(OC)c(OC)c1)C2
- GI50 [1]: > 10 µM
- GI50 (HeLa [2]): > 10 µM
- GI50 [3]: > 10 µM
- GI50 (A549): > 10 µM
- GI50 (MDA-MB-231): > 10 µM

SMILES: COc1cc2c(cc1OC)C(=O)/C(=C/c1ccc(OC)c(OC)c1OC)C2
- GI50 [1]: > 10 µM
- GI50 (HeLa [2]): > 10 µM
- GI50 [3]: > 10 µM
- GI50 (A549): > 10 µM
- GI50 (MDA-MB-231): > 10 µM

More lines, main results first:

- GI50 (HeLa [2]): 2.37 µM
- GI50 (A549): 2.79 µM
- GI50 (MDA-MB-231): 5.84 µM
SMILES: COc1cc(/C=C2\Cc3c(cc(OC)c(OC)c3OC)C2=O)cc(OC)c1OC
- GI50 [1]: 4.99 µM
- GI50 [3]: 1.58 µM

- GI50 (HeLa [2]): > 10 µM
- GI50 (A549): > 10 µM
- GI50 (MDA-MB-231): > 10 µM
SMILES: COc1cc(/C=C2\Cc3cc(OC)c(OC)c(OC)c3C2=O)cc(OC)c1OC
- GI50 [1]: > 10 µM
- GI50 [3]: > 10 µM

- GI50 (HeLa [2]): 0.79 µM
- GI50 (A549): 0.77 µM
- GI50 (MDA-MB-231): 3.49 µM
SMILES: COc1ccc(/C=C2\Cc3c(cc(OC)c(OC)c3OC)C2=O)cc1[N+](=O)[O-]
- GI50 [1]: 1.56 µM
- GI50 [3]: 0.95 µM

- GI50 (HeLa [2]): 10.2 µM
- GI50 (A549): 15.4 µM
- GI50 (MDA-MB-231): 29.4 µM
SMILES: COc1ccc(/C=C2\CCc3c(cc(OC)c(OC)c3OC)C2=O)cc1F
- GI50 [1]: 27.6 µM
- GI50 [3]: 19.3 µM

- IC50 (Tubulin): 8.64 µM
- GI50 (HeLa [2]): 0.169 µM
- GI50 (A549): 0.212 µM
- GI50 (MDA-MB-231): 0.485 µM
SMILES: COc1ccc(/C=C2\Cc3c(cc(OC)c(OC)c3OC)C2=O)cc1N
- GI50 [1]: 0.456 µM
- GI50 [3]: 0.45 µM

- IC50 (Tubulin): 9.05 µM
- GI50 (HeLa [2]): 0.356 µM
- GI50 (A549): 0.41 µM
- GI50 (MDA-MB-231): 0.678 µM
SMILES: COc1ccc(/C=C2\Cc3c(cc(OC)c(OC)c3OC)C2=O)cc1Br
- GI50 [1]: 0.389 µM
- GI50 [3]: 0.563 µM

- GI50 (HeLa [2]): 8.56 µM
- GI50 (A549): 9.74 µM
- GI50 (MDA-MB-231): 9.85 µM
SMILES: COc1ccc(/C=C2\Cc3c(cc(OC)c(OC)c3OC)C2=O)cc1OC
- GI50 [1]: 7.47 µM
- GI50 [3]: 10.5 µM

- GI50 (HeLa [2]): > 10 µM
- GI50 (A549): > 10 µM
- GI50 (MDA-MB-231): > 10 µM
SMILES: COc1ccc(/C=C2\Cc3cc(OC)c(OC)c(OC)c3C2=O)cc1
- GI50 [1]: > 10 µM
- GI50 [3]: > 10 µM
